Assay results: patent publication US6197802A, “Fungicidal melithiazole derivatives” (American Cyanamid Co., priority 1997, dated 2001)
Values after ≈ are worked out from the molar mass of the structure shown. Where two headings read alike, the source gives them in different places.

Experiments:
[1] = system: Botrytis cinera; assay: Serial dilution test, Minimum Inhibitory Concentration, Botrytis cinera (BOC); type: cell-based; details: read-out: MIC (BOC)
Method: (§1) Determination of Minimum Inhibitory Concentration by Test Compounds in the Serial Dilution Test with Botrytis cinera (BOC), and Hansenula anomala (HNA).
(§2) The MIC (Minimum Inhibitory Concentration) value, which indicates the lowest concentration of the active ingredient in the growth medium which causes a total inhibition of mycelial growth, is determined by serial dilution tests. The compounds of the invention have been compared with known melithiazole C. melithiazole C-amide and with the commercially available strobilurines kresoxim-methyl (BASF AG) and azoxystrobin (ZENECA).

[2] = system: Hansenula anomala; assay: Serial dilution test, Minimum Inhibitory Concentration, Hansenula anomala (HNA); type: cell-based; details: read-out: MIC (HNA)
Method: as §1, §2

[3] = system: mouse fibroblasts (cell line L929); assay: Toxicity using mouse fibroblasts (cell line L929); type: cell-based; details: for Therapeutic Index: ratio toxicity IC50 (L929) / BOC-MIC
Description: In addition, the toxicity IC50 of these compounds has been evaluated using mouse fibroblasts (cell line L929). The therapeutic index given is defined as the ratio between the toxicity and the BOC-MIC value (IC50 /MIC).

[4] = system: Bortrytis cinera; details: poster of B. Bohlendorf et al., 1996; cited from earlier work
[5] = system: Plasmopara viticola; assay: Curative (2 d cur) activity, grape downy mildew (GDM); type: in vivo; details: 2 d curative
[6] = system: Plasmopara viticola; assay: Protective (1 d res) activity, grape downy mildew (GDM); type: in vivo; details: 1 d protective
[7] = system: Phytophthora infestans; type: in vivo; details: 1 d protective
[8] = system: Pyrenophora teres; assay: Protective (1 d res) activity, barley net blotch (BNB); type: in vivo; details: 1 d protective
[9] = system: phytopathogenic fungi; assay: Curative in-vivo tests, overall statement; details: overall statement in words
Method: Test Plants: Test plants were grown up in the greenhouse. Either seed, pregerminated seed or rooted vegetative plant material was planted in pots containing a fertilized soil/peat mixture. Test plants were used for treating them with the various fungicides when they were in the 3-4 leaf stage. The number of leaves of vegetatively propagated plant material was cut back to 3-4 leaves per plant.
Application: Test plants were treated with fungicides either 1 or 3 days before (protective treatments) or 2 or 3 days after (curative treatments) the inoculation with a pathogen. The test compounds were applied to the test plants using a lateral-nozzle sprayer with a turntable rotating the pots, or the test compounds were applied with an hand-held airbrush. 24 plants were used per treatment.
Compounds: Technical material of the compound according to the invention coded MCM, and of commercially available strobilurines kresoxim-methyl (BASF) and azoxystrobin (ZENECA) was dissolved in acetone with 0.5% Triton X155 at a concentration of 0.5%. […]
Assessment of diseases: The percentage of leaf area infected was assessed by visual estimation when untreated control plants were just completely diseased. Each plant was individually evaluated and then the mean infection rating was calculated for each treatment. The fungicidal activity was calculated using the following formula: [formula] […]

[10] = system: powdery mildew (Erysiphe graminis) on wheat; assay: Foliar systemicity in wheat leaves, wheat powdery mildew as indicator disease; details: for Systemicity distal (disease free zone) / Systemicity proximal (disease free zone): wheat leaves, band application of 400 ppm solution; for Systemicity distal (disease free zone): toward leaf apex; for Systemicity proximal (disease free zone): toward leaf base
Description: Foliar systemicity: When the primary leaves of wheat planted in 8 cm diameter pots in the greenhouse were fully expanded, the plants were cut back to four leaves in each pot of which two were marked with a permanent marker 5 cm below the leaf tip on the upper leaf surface. Thus there were two band-treated and two untreated plants in each pot. […] The application band covered the whole leaf width. After application and after the bands were dried, the plants were moved to the greenhouse and kept there for 2 days to allow for movement of the compounds. The plants were kept by bottom watering. The plants were then inoculated by dusting them with powdery mildew conidia (Erysiphe graminis). Evaluations were made 7-8 days after inoculation. Distal and proximal movement were assessed as follows: The distal and proximal disease free zones on the upper leaf surface were measured in mm. The distal direction is from the band toward the leaf apex and the proximal direction is from the band towards the leaf base.

[11] = Botrytis cinera, total inhibition of mycelial growth
[12] = total inhibition of mycelial growth
[13] = toxicity, mouse fibroblasts L929, read-out: IC50

| Compound | Therapeutic Index [3] | MIC [1, 11] [µg/mL] | MIC [2, 12] [µg/mL] | IC50 [3, 13] [µg/mL] | other results |
| --- | --- | --- | --- | --- | --- |
| C=C(C)c1nc(/C=C/[C@H](OC)[C@@H](C)/C(=C\C(=O)OC)OC)cs1 [Example 29, Methyl 7-[2-isopropenylthiazol-4-yl]-3,5-dimethoxy-4-methylheptan-2,6-dienoate] | 100 | – | – | – | MIC ([1]; Botrytis): 0.02 µg/mL (≈ 0.0593 µM); MIC [2]: 0.3 µg/mL (≈ 0.889 µM); IC50 ([3]; Mus musculus, L929): 2 µg/mL (≈ 5.93 µM) |
| CO/N=C(/C)c1nc(/C=C/[C@H](OC)[C@@H](C)/C(=C\C(=O)OC)OC)cs1 [8:(Z)-MCM] | 100 | 0.005 (≈ 0.0136 µM) | 0.08 (≈ 0.217 µM) | 0.5 (≈ 1.36 µM) | – |
| COC(=O)/C=C(/OC)[C@H](C)[C@H](/C=C/c1csc(C(C)=O)n1)OC [2:melithiazole C, methyl 7-(2-acetylthiazol-4-yl)-3,5-dimethoxy-4-methylheptan-2,6-dienoate, reference compound] | 0.37 | 1.5 (≈ 4.42 µM) | 3 (≈ 8.84 µM) | 0.55 (≈ 1.62 µM) | in vitro activity against Bortrytis cinera [4]: weak in vitro activity |
| COC(=O)/C=C(/OC)[C@H](C)[C@H](/C=C/c1csc(/C(C)=N\OCc2ccccc2)n1)OC [Example 9] | 3.33 | 0.15 (≈ 0.337 µM) | 0.6 (≈ 1.35 µM) | 0.5 (≈ 1.12 µM) | – |
| CON=C(C)c1nc(/C=C/[C@H](OC)[C@@H](C)/C(=C\C(=O)OC)OC)cs1 (mixture of isomers) [MCM] | – | – | – | – | activity (%) GDM 2d cur ([5]; dose 4 ppm): 0%; activity (%) GDM 2d cur ([5]; dose 20 ppm): 59%; activity (%) GDM 1 d res ([6]; dose 4 ppm): 92%; activity (%) GDM 1 d res ([6]; dose 20 ppm): 100%; activity (%) TLB 1 d res ([7]; dose 4 ppm): 25%; activity (%) TLB 1 d res ([7]; dose 20 ppm): 65%; activity (%) BNB 1 d res ([8]; dose 4 ppm): 100%; activity (%) BNB 1 d res ([8]; dose 20 ppm): 100%; curative activity [9]: better than that of the commercialized strobilurine derivatives kresoxim-methyl and azoxystrobin; foliar systemicity ([10]; overall statement in words): better than that of the commercialized strobilurine derivatives kresoxim-methyl and azoxystrobin; bioavailable ([10]; plant, implied by foliar systemicity and curative values): readily and highly bioavailable; Systemicity distal (disease free zone) [10]: 50 mm; Systemicity proximal (disease free zone) [10]: 21 mm |
| COC(=O)/C=C(/OC)[C@H](C)[C@H](/C=C/c1csc(C2(C)CO2)n1)OC (some centres unmarked) [Example 41, Methyl 7-[2-(1,2-epoxy-1-methylethyl)thiazol-4-yl]-3,5-dimethoxy-4-methylheptan-2,6-dienoate] | > 6.17 | – | – | – | MIC ([1]; Botrytis): 0.6 µg/mL (≈ 1.7 µM); MIC [2]: 5 µg/mL (≈ 14.1 µM); IC50 ([3]; Mus musculus, L929): > 3.7 µg/mL |
| COC(=O)/C=C(/OC)[C@H](C)[C@H](/C=C/c1csc(C(C)OC(C)=O)n1)OC (some centres unmarked) [Example 20, Methyl 7-[2-(1-acetoxyethyl)thiazol-4-yl]-3,5-dimethoxy-4-methylheptan-2,6-dienoate] | > 13.33 | 0.3 (≈ 0.782 µM) | 1.25 (≈ 3.26 µM) | > 4 | – |
| COC(=O)/C=C(/OC)[C@H](C)[C@H](/C=C/c1csc(/C(C)=N/OCc2ccccc2)n1)OC [Example 10] | 1.25 | 0.04 (≈ 0.09 µM) | 0.3 (≈ 0.675 µM) | 0.05 (≈ 0.112 µM) | – |
| COC(=O)/C=C(/OC)[C@H](C)[C@H](/C=C/c1csc(C(C)OC)n1)OC (some centres unmarked) [Example 21, Methyl 7-[2-(1-methoxyethyl)thiazol-4-yl]-3,5-dimethoxy-4-methylheptan-2,6-dienoate] | 13.33 | 0.15 (≈ 0.422 µM) | 0.08 (≈ 0.225 µM) | 2 (≈ 5.63 µM) | – |
| CO/N=C(/C(=O)OC)c1ccccc1COc1ccccc1C [kresoxim-methyl, reference compound] | 3.75 | 0.1 (≈ 0.319 µM) | – | 0.375 (≈ 1.2 µM) | activity (%) GDM 2d cur ([5]; dose 4 ppm): 0%; activity (%) GDM 2d cur ([5]; dose 20 ppm): 9%; activity (%) GDM 1 d res ([6]; dose 4 ppm): 39%; activity (%) GDM 1 d res ([6]; dose 20 ppm): 87%; activity (%) BNB 1 d res ([8]; dose 4 ppm): 97%; activity (%) BNB 1 d res ([8]; dose 20 ppm): 98%; Systemicity distal (disease free zone) [10]: 23 mm; Systemicity proximal (disease free zone) [10]: 13 mm |
| CO/N=C(\C)c1nc(/C=C/[C@H](OC)[C@@H](C)/C(=C\C(=O)OC)OC)cs1 [8:(E)-MCM] | 160 | 0.0025 (≈ 0.00679 µM) | 0.08 (≈ 0.217 µM) | 0.4 (≈ 1.09 µM) | – |
| CCOC(=O)/C=C(/OC)[C@H](C)[C@H](/C=C/c1csc(C(C)=NOC)n1)OC (mixture of isomers) [(E/Z)-(13/14)] | 40 | 0.005 | 0.02 | 0.2 | – |
| CO/C(=C/C(N)=O)[C@H](C)[C@H](/C=C/c1csc(C(C)=O)n1)OC [1:melithiazole C-amide, 7-(2-acetylthiazol-4-yl)-3,5-dimethoxy-4-methylheptan-2,6-dienoic amide, reference compound] | < 0.8 | > 10 | > 10 | 8 (≈ 24.7 µM) | – |
| CO/C=C(/C(=O)OC)c1ccccc1Oc1cc(Oc2ccccc2C#N)ncn1 [azoxystrobin, reference compound] | – | – | – | – | Systemicity distal (disease free zone) [10]: 43 mm; Systemicity proximal (disease free zone) [10]: 9 mm |
